Source: patent US11059789B2, “Isoquinoline-steroid conjugates and uses thereof” (priority 2018, dated 2021)
Where a name gives a salt, the structure may show the parent alone.

What was measured:
[1] = target: ROCK2 (Homo sapiens (Human), UniProt O75116); assay: Kinase assay ROCK2; type: biochemical; details: HCl salt
Experimental: (§1) Inhibition of various kinases was assayed.

[2] = target: ROCK1 (Homo sapiens (Human), UniProt Q13464); assay: Kinase assay ROCK1; type: biochemical; details: HCl salt
ROCK1, sequence (Q13464 whole entry, species assumed): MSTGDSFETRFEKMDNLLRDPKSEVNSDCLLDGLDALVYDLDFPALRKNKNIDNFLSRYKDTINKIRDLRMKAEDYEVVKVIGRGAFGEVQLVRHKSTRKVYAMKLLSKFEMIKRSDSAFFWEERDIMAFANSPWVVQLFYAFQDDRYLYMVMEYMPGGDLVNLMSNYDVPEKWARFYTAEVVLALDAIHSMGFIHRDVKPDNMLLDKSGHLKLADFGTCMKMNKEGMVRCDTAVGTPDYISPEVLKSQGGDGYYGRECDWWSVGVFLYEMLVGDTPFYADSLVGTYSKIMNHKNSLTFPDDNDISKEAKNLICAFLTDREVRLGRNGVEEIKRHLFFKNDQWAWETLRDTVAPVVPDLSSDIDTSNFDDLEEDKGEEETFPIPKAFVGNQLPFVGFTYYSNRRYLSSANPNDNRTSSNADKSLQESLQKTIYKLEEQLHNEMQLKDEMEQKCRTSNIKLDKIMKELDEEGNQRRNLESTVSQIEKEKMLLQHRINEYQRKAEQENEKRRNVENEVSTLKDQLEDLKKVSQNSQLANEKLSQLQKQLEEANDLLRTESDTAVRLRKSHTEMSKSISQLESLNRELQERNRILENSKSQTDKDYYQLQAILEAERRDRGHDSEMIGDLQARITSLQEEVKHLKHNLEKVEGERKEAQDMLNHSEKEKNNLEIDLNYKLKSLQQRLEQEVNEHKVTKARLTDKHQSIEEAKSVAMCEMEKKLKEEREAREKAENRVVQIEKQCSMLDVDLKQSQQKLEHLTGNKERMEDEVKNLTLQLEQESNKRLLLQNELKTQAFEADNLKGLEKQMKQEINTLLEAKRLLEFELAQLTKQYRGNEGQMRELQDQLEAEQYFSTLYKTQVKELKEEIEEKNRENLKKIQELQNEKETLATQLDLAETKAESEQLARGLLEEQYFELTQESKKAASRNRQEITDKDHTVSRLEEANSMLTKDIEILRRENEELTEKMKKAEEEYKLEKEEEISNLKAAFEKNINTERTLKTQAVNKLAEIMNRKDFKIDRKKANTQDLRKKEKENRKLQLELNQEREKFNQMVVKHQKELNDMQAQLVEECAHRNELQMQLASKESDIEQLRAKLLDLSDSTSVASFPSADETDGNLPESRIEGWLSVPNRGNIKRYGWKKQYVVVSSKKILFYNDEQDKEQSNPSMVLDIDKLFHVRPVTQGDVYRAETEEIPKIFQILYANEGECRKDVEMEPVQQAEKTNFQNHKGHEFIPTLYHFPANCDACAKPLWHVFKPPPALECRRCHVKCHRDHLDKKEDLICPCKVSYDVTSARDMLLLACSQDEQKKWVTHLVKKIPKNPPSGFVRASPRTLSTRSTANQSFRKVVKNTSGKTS
Experimental: as §1

[3] = target: PKA (Homo sapiens, UniProt P17612); assay: Kinase assay PKA; type: biochemical; details: HCl salt
Experimental: as §1

[4] = target: JAK1 (Homo sapiens (Human), UniProt P23458); assay: Kinase assay JAK1; type: biochemical; details: HCl salt
Experimental: as §1

[5] = target: JAK2 (Homo sapiens (Human), UniProt O60674); assay: Kinase assay JAK2; type: biochemical; details: HCl salt
[6] = target: JAK3 (Homo sapiens (Human), UniProt P52333); assay: Kinase assay JAK3; type: biochemical; details: HCl salt
JAK3, sequence (P52333 whole entry, species assumed): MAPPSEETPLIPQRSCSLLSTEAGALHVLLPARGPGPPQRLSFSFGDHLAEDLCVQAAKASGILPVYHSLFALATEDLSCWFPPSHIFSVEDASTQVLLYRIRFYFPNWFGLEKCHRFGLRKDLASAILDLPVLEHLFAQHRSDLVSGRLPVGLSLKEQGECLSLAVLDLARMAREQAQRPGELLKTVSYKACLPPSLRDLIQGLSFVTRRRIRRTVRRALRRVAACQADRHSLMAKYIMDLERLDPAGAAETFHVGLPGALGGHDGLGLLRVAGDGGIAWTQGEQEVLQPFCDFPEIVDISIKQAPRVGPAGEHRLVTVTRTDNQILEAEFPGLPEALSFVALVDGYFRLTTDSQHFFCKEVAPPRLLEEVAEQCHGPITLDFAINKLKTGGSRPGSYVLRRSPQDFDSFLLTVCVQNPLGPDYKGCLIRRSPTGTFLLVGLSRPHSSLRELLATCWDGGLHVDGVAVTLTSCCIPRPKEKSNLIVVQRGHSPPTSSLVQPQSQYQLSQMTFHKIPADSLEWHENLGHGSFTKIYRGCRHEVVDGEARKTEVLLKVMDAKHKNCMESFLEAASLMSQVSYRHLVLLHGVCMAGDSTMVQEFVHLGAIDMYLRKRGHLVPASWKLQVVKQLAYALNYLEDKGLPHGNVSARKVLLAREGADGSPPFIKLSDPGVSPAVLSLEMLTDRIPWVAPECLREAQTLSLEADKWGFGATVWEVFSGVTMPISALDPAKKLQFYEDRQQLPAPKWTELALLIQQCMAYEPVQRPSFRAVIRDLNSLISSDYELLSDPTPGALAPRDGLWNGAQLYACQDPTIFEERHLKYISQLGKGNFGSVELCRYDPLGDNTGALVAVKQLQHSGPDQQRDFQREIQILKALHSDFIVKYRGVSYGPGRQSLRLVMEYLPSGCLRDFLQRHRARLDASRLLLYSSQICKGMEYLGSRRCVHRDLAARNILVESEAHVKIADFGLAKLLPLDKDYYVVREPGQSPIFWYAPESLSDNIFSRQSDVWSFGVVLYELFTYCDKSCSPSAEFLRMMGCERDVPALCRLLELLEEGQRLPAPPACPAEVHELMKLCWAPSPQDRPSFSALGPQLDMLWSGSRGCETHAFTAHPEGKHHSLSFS
Experimental: as §1

[7] = target: TYK2 (Homo sapiens (Human), UniProt P29597); assay: Kinase assay TYK2; type: biochemical; details: HCl salt
TYK2, sequence (P29597 whole entry, species assumed): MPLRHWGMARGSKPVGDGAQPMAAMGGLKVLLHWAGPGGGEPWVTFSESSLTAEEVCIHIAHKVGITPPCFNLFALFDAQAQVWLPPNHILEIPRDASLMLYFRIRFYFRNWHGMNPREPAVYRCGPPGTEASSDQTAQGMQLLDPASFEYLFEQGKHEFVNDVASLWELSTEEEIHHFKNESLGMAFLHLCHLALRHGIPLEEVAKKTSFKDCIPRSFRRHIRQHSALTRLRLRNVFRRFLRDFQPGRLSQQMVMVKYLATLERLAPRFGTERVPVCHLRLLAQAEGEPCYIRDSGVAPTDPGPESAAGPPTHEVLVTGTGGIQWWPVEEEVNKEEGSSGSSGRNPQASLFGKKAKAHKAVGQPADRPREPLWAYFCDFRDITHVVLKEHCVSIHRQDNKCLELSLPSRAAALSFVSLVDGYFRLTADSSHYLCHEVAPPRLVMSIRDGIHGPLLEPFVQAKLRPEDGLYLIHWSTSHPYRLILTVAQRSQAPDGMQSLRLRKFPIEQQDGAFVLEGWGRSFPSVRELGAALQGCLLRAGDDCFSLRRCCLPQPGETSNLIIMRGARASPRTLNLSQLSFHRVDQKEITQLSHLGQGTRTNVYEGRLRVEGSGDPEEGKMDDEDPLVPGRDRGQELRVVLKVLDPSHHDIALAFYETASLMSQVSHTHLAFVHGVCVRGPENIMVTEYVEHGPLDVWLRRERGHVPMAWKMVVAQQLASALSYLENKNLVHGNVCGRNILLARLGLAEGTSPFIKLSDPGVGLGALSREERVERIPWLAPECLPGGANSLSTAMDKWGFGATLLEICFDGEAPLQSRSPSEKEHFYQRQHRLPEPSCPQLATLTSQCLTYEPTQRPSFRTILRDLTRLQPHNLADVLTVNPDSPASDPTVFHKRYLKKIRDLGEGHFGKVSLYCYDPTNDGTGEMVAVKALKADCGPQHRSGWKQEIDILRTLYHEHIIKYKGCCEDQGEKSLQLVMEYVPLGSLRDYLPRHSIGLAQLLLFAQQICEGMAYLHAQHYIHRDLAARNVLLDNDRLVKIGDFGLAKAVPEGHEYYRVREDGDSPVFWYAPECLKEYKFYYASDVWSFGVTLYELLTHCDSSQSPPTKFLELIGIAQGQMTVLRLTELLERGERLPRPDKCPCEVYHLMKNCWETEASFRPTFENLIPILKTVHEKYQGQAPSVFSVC
Experimental: as §1

[8] = target: IKKb (Homo sapiens (Human), UniProt O14920); assay: Kinase assay IKKb; type: biochemical; details: HCl salt
Experimental: as §1

[9] = target: PKCh (Homo sapiens (Human), UniProt P24723); assay: Kinase assay PKCh; type: biochemical; details: HCl salt
PKCh, sequence (P24723 whole entry): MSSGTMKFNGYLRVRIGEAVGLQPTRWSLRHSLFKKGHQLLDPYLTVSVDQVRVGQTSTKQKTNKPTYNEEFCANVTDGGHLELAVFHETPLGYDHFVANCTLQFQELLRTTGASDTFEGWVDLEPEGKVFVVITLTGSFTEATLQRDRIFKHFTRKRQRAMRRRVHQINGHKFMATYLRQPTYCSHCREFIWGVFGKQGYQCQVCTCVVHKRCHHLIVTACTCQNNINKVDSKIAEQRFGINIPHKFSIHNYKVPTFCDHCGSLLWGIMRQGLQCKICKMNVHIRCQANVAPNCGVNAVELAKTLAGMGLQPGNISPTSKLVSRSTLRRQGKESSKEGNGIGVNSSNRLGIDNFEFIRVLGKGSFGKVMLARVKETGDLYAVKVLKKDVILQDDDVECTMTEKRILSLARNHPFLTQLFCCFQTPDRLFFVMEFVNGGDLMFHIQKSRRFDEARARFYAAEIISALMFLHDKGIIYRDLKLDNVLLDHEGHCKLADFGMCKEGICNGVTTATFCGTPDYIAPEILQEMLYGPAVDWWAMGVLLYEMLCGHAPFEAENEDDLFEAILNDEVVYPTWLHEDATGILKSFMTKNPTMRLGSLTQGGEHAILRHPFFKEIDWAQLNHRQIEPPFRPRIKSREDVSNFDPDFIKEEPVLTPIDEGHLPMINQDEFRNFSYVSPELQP
Experimental: as §1

[10] = target: PKCd (Homo sapiens (Human), UniProt Q05655); assay: Kinase assay PKCd; type: biochemical; details: HCl salt
PKCd, sequence (Q05655 whole entry, species assumed): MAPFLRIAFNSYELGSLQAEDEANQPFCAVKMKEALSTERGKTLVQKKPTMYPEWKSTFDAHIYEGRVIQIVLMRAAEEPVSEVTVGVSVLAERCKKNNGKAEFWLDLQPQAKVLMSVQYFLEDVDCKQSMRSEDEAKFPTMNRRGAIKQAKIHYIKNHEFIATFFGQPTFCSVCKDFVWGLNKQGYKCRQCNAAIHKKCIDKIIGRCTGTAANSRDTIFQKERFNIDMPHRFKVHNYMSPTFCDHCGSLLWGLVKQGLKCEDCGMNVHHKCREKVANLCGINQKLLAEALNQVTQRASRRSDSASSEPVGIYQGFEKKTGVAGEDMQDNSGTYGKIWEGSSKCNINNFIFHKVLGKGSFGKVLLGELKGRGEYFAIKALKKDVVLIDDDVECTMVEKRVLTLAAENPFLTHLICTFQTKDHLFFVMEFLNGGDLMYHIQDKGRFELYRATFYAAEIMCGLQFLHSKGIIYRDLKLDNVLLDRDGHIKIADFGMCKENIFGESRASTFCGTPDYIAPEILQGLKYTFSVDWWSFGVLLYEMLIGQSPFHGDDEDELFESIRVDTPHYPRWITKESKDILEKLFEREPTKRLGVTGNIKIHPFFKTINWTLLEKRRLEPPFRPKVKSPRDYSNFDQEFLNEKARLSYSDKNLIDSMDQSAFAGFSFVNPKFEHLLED
Experimental: as §1

[11] = target: PKCe (Homo sapiens (Human), UniProt Q02156); assay: Kinase assay PKCe; type: biochemical; details: HCl salt
Experimental: as §1

[12] = target: AKT1 (Homo sapiens (Human), UniProt P31749); assay: Kinase assay AKT1; type: biochemical; details: HCl salt
Experimental: as §1

[13] = tested on: PTM; assay: PTM assay; type: cell-based; details: HCl salt
Experimental: as §1

[14] = tested on: HTM; assay: HTM assay; type: cell-based; details: HCl salt
Experimental: as §1

[15] = in vitro; type: cell-based
[16] = tested on: NFkB; assay: NFkB assay; type: cell-based; details: HCl salt
Experimental: as §1

[17] = tested on: Myeloperoxidase (MPO) activity; assay: Myeloperoxidase (MPO) activity after intravitreal LPS in mice; type: in vivo, C57Bl6 male mice; details: dosed at 0 and 6 hours
Experimental: Adult C57Bl6 male mice were injected with 2 ng of lipopolysaccharide (LPS) intravitreally. The mice were then dosed with vehicle, compounds or control treatments (0.07% w/w, 0.02% w/w or 0.007% w/w) at times 0 and 6 hours post-injection. Aqueous humor (AH) and vitreous humor (VH) was collected 24 hours after injection of LPS and assayed for MPO activity by ELISA. Data is a compilation of two separate experiments. Statistical analysis was carried out on GraphPad prism using a multiple comparisons 1-way ANOVA with uncorrected Dunn's test. Results are shown in FIG. 5 (aqueous humor) and FIG. 6 (vitreous humor). In FIG. 5 and FIG. 6, Dex refers to dexamethasone, Compound A refers to (S)-3-amino-2-(4-(hydroxymethyl)phenyl)-N-(isoquinolin-6-yl)propanamide, * refers to p<0.05, and ** refers to p<0.005. MPO levels correspond to levels of neutrophil infiltration. In the context of non-infectious inflammatory events, neutrophils cause robust levels of damage to tissues.

| SMILES | IC50 [1] | IC50 [2] | IC50 [3] | IC50 [4] | IC50 [5] | IC50 [6] | IC50 [7] | IC50 [8] | IC50 [9] | IC50 [10] | IC50 [11] | IC50 [12] | IC50 [13] | IC50 [14] | IC50 [15] | IC50 [16] | effect on myeloperoxidase activity in aqueous humor ([17]; aqueous humor 24 hours, FIG. 5) | effect on myeloperoxidase activity in vitreous humor ([17]; vitreous humor 24 hours, FIG. 6) |
| --- | --- | --- | --- | --- | --- | --- | --- | --- | --- | --- | --- | --- | --- | --- | --- | --- | --- | --- |
| CC1(C)O[C@@H]2C[C@H]3[C@@H]4CCC5=CC(=O)C=C[C@]5(C)[C@@]4(F)[C@@H](O)C[C@]3(C)[C@]2(C(=O)COC(=O)CCC(=O)OCc2ccc([C@@H](CN)C(=O)Nc3ccc4cnccc4c3)cc2)O1 [Example 33] | 14 nM | 21 nM | 81 nM | 50000 nM | 42400 nM | 30100 nM | 50000 nM | 40100 nM | 145 nM | 142 nM | 1580 nM | 1240 nM | 75 nM | 4 nM | 55200 nM | 103 nM | inhibiting effect | inhibiting effect |
| C[C@@H]1C[C@H]2[C@@H]3CCC4=CC(=O)C=C[C@]4(C)[C@@]3(F)[C@@H](O)C[C@]2(C)[C@@]1(O)C(=O)COC(=O)C[C@H](N)C(=O)OCc1ccc([C@@H](CN)C(=O)Nc2ccc3cnccc3c2)cc1 [Example 83, 1-(4-((S)-3-amino-1-(isoquinolin-6-ylamino)-1-oxopropan-2-yl)benzyl) 4-(2-((8S,9R,10S,11S,13S,14S,16R,17R)-9-fluoro-11,17-dihydroxy-10,13,16-trimethyl-3-oxo-6,7,8,9,10,11,12,13,14,15,16,17-dodecahydro-3H-cyclopenta[a]phenanthren-17-yl)-2-oxoethyl) L-aspartate trihydrochloride] | 9 nM | 11 nM | 29 nM | 34700 nM | 22000 nM | 7730 nM | 50000 nM | 19200 nM | 51 nM | 56 nM | 154 nM | 95 nM | 43 nM | 25 nM | 100000 nM | 55 nM | – | – |
| C[C@@H]1C[C@H]2[C@@H]3CCC4=CC(=O)C=C[C@]4(C)[C@@]3(F)[C@@H](O)C[C@]2(C)[C@@]1(O)C(=O)COC(=O)c1ccc(C(=O)OCc2ccc([C@@H](CN)C(=O)Nc3ccc4cnccc4c3)cc2)cc1 [Example 66, 4-((S)-3-amino-1-(isoquinolin-6-ylamino)-1-oxopropan-2-yl)benzyl (2-((8S,9R,10S,11S,13S,14S,16R,17R)-9-fluoro-11,17-dihydroxy-10,13,16-trimethyl-3-oxo-6,7,8,9,10,11,12,13,14,15,16,17-dodecahydro-3H-cyclopenta[a]phenanthren-17-yl)-2-oxoethyl) terephthalate dihydrochloride] | 26 nM | 36 nM | 117 nM | 50000 nM | 36200 nM | 43200 nM | 50000 nM | 50000 nM | 282 nM | 357 nM | 3610 nM | 1360 nM | 358 nM | 15 nM | 100000 nM | 55 nM | – | – |
| C[C@@H]1C[C@H]2[C@@H]3CCC4=CC(=O)C=C[C@]4(C)[C@@]3(F)[C@@H](O)C[C@]2(C)[C@@]1(O)C(=O)COC(=O)CCC(=O)OCc1ccc([C@@H](CN)C(=O)Nc2ccc3cnccc3c2)cc1 [Example 25] | 17 nM | 25 nM | 138 nM | 50000 nM | 40900 nM | 21400 nM | 50000 nM | 38500 nM | 173 nM | 225 nM | 1580 nM | 955 nM | 295 nM | 4.5 nM | 100000 nM | 39 nM | – | – |
